The values that follow come from PubChem BioAssay AID226 (DTP/NCI, 2004).

In the assay the test system is B6C3F1 mice, intracerebral ependymoblastoma, median survival T/C. Nature of the assay: NCI In Vivo Anticancer Drug Screen. Data for tumor model Ependymoblastoma (intracerebral) in B6C3F1 mice. To be noted: endpoint: median survival time, higher = longer survival. The procedure: The antitumor activity of compounds was measured in mice bearing transplantable tumors. Survival or tumor size were measured and the results are expressed as the measurement made in the treated group (T) divided by the measurement made in the vehicle treated control group (C). The tumor model used in this assay is Ependymoblastoma (intracerebral) in B6C3F1 mice

[1] abbreviates: dose: 4.0 mg/kg/injection, schedule: Q01DX005 (ip), vehicle: saline.
The mark [2] stands for this setting: dose: 8.0 mg/kg/injection, schedule: Q01DX005 (ip), vehicle: saline.
The mark [3] stands for this setting: dose: 16.0 mg/kg/injection, schedule: Q01DX005 (ip), vehicle: saline.
Where [4] appears, read: dose: 32.0 mg/kg/injection, schedule: Q01DX005 (ip), vehicle: saline.

Values joined by “and” are separate entries in the source; they are usually repeats but may differ in a detail not shown here. Equal entries are not always repeated. Toxic doses and inconclusive results are not listed.

As to `NCCOCC(N)C(=O)O` (stereo not drawn), the T/C is, setting by setting: (dose: 62.5 mg/kg/injection, schedule: Q01DX005 (ip), vehicle: saline) 93 % of control; (dose: 125.0 mg/kg/injection, schedule: Q01DX005 (ip), vehicle: saline) 95 % of control; (dose: 250.0 mg/kg/injection, schedule: Q01DX005 (ip), vehicle: saline) 98 % of control; (dose: 500.0 mg/kg/injection, schedule: Q01DX005 (ip), vehicle: saline) 103 % of control.

As for `CCC1=C(c2ccc(OC)cc2)CCC(C(=O)O)C1C` (stereo not drawn), the T/C is, setting by setting: under setting [1], 102 % of control; under setting [2], 102 % of control; under setting [3], 102 % of control; under setting [4], 103 % of control.

Consider `O=C(NCCCl)NCCCl`, for which the T/C runs as follows: (dose: 6.25 mg/kg/injection, schedule: Q01DX005 (ip), vehicle: Klucel (hydroxypropylcellulose) (HPC)) 102 % of control and 105 % of control; (dose: 12.5 mg/kg/injection, schedule: Q01DX005 (ip), vehicle: Klucel (hydroxypropylcellulose) (HPC)) 102 % of control and 104 % of control; (dose: 25.0 mg/kg/injection, schedule: Q01DX005 (ip), vehicle: Klucel (hydroxypropylcellulose) (HPC)) 93 % of control and 99 % of control; (dose: 50.0 mg/kg/injection, schedule: Q01DX005 (ip), vehicle: Klucel (hydroxypropylcellulose) (HPC)) 92 % of control and 103 % of control; (dose: 100.0 mg/kg/injection, schedule: Q01DX005 (ip), vehicle: Klucel (hydroxypropylcellulose) (HPC)) 98 % of control and 107 % of control; (dose: 200.0 mg/kg/injection, schedule: Q01DX005 (ip), vehicle: Klucel (hydroxypropylcellulose) (HPC)) 96 % of control and 107 % of control. Besides, under “dose: 400.0 mg/kg/injection, schedule: Q01DX005 (ip), vehicle: Klucel (hydroxypropylcellulose) (HPC)”, the T/C was 108 % of control and 87 % of control.

In the case of `CN(C)N=Nc1ccc(C(=O)O)cc1`, the T/C (dose: 32.0 mg/kg/injection, schedule: Q01DX005 (ip), vehicle: saline with Tween-80) was 122 % of control.

Consider `Nc1nc(=S)c2ncn(C3OC(COC(=O)c4ccc(Cl)cc4)C(OC(=O)c4ccc(Cl)cc4)C3OC(=O)c3ccc(Cl)cc3)c2[nH]1` (stereo not drawn), for which the T/C reads like this: (dose: 18.75 mg/kg/injection, schedule: Q01DX005 (ip), vehicle: Klucel (hydroxypropylcellulose) (HPC)) 101 % of control; (dose: 37.5 mg/kg/injection, schedule: Q01DX005 (ip), vehicle: Klucel (hydroxypropylcellulose) (HPC)) 102 % of control; (dose: 75.0 mg/kg/injection, schedule: Q01DX005 (ip), vehicle: Klucel (hydroxypropylcellulose) (HPC)) 98 % of control and 115 % of control.

As for `O=C(NP(=O)(N1CC1)N1CC1)c1cc(I)ccc1I`, the T/C is, setting by setting: under setting [2], 104 % of control and 109 % of control; under setting [3], 106 % of control and 124 % of control; (dose: 16.0 mg/kg/injection, schedule: Q#A X004 (ip), vehicle: suspension in saline) 101 % of control; (dose: 16.0 mg/kg/injection, schedule: Q#A X006 (ip), vehicle: suspension in saline) 113 % of control; (dose: 32.0 mg/kg/injection, schedule: Q01DX001 (ip), vehicle: suspension in saline) 101 % of control; under setting [4], 112 % of control. Besides, the T/C is 117 % of control (dose: 32.0 mg/kg/injection, schedule: Q#A X004 (ip), vehicle: suspension in saline); 117 % of control (dose: 32.0 mg/kg/injection, schedule: Q#A X006 (ip), vehicle: suspension in saline); 117 % of control (dose: 64.0 mg/kg/injection, schedule: Q01DX001 (ip), vehicle: suspension in saline); 103 % of control (dose: 64.0 mg/kg/injection, schedule: Q01DX001 (oral), vehicle: suspension in saline); 117 % of control (dose: 64.0 mg/kg/injection, schedule: Q#A X004 (ip), vehicle: suspension in saline); 122 % of control (dose: 64.0 mg/kg/injection, schedule: Q#A X006 (ip), vehicle: suspension in saline). The T/C is, setting by setting: (dose: 128.0 mg/kg/injection, schedule: Q01DX001 (ip), vehicle: suspension in saline) 103 % of control; (dose: 128.0 mg/kg/injection, schedule: Q01DX001 (oral), vehicle: suspension in saline) 106 % of control; (dose: 128.0 mg/kg/injection, schedule: Q01DX005 (ip), vehicle: saline) 116 % of control; (dose: 128.0 mg/kg/injection, schedule: Q#A X004 (ip), vehicle: suspension in saline) 111 % of control; (dose: 256.0 mg/kg/injection, schedule: Q01DX001 (oral), vehicle: suspension in saline) 113 % of control; (dose: 512.0 mg/kg/injection, schedule: Q01DX001 (ip), vehicle: suspension in saline) 112 % of control.

As for `O=NN(CCCl)C(=O)NC1OC(CO)C(O)C(O)C1O` (stereo not drawn), the T/C is, setting by setting: (dose: 0.31 mg/kg/injection, schedule: Q01DX009 (ip), vehicle: saline) 104 % of control; (dose: 0.63 mg/kg/injection, schedule: Q01DX009 (ip), vehicle: saline) 115 % of control; (dose: 1.0 mg/kg/injection, schedule: Q01DX005 (ip), vehicle: saline) 119 % of control; (dose: 2.0 mg/kg/injection, schedule: Q01DX005 (ip), vehicle: saline) 113 % of control; (dose: 4.0 mg/kg/injection, schedule: Q01DX001 (ip), vehicle: saline) 108 % of control; under setting [1], 122 % of control. Further, the T/C was 105 % of control (dose: 8.0 mg/kg/injection, schedule: Q01DX001 (ip), vehicle: saline); 105 % of control (dose: 16.0 mg/kg/injection, schedule: Q01DX001 (ip), vehicle: saline); 100 % of control (dose: 32.0 mg/kg/injection, schedule: Q01DX001 (ip), vehicle: saline); 108 % of control (dose: 64.0 mg/kg/injection, schedule: Q01DX001 (ip), vehicle: saline); 94 % of control (dose: 128.0 mg/kg/injection, schedule: Q01DX001 (ip), vehicle: saline).

With `COC(=O)c1cccc(N=NN(C)C)c1`, the T/C reads like this: (dose: 8.0 mg/kg/injection, schedule: Q01DX005 (ip), vehicle: saline + alcohol) 98 % of control; (dose: 16.0 mg/kg/injection, schedule: Q01DX005 (ip), vehicle: saline + alcohol) 108 % of control; (dose: 32.0 mg/kg/injection, schedule: Q01DX005 (ip), vehicle: saline + alcohol) 123 % of control; (dose: 100.0 mg/kg/injection, schedule: Q01DX005 (ip), vehicle: saline with Tween-80) 114 % of control; (dose: 128.0 mg/kg/injection, schedule: Q01DX005 (ip), vehicle: saline + alcohol) 162 % of control.
